A short description of data set [1]: In vitro intrinsic clearance in human liver microsomes. It is filed as in vitro ADME. As to conditions: pH 7.4, read-out: Intrinsic clearance (μL/min/mg protein) human. The protocol:
Methods and Procedure: The general procedure involves incubating test compounds with liver microsomes and subsequently detecting the compounds to determine intrinsic clearance. Clearance was estimated from the rate of depletion k (min−1), the volume of the incubation V (mL), and the amount of microsomal proteins in the incubation M (mg). Intrinsic clearance is defined by the following equation: Clint k*V/M.
Values for CLint are expressed as μL/min/mg protein. Verapamil and dextromethorphan were used as positive controls for CYP3A4 and CYP2D6 isoforms, respectively, to confirm metabolic activity.
Positive control and compounds for testing were dissolved in an appropriate solvent to obtain a 10 mM stock solution, which was diluted to achieve a final working solution, as detailed in the above table. Stock solutions were usually prepared at 10 mM DMSO, whereas working solutions were made by adding 5 μL 10 mM DMSO+995 μL MeOH. However, this concentration can be varied, e.g., when the test item is not soluble in the selected solvent.
Prior to experimentation, frozen liver microsomes were thawed in a water bath at 37° C. and kept on ice until use. The microsomes were then diluted with 50 mM potassium phosphate buffer pH 7.4 to a protein concentration of 0.56 mg/mL. To prepare test and control items in final incubation conditions, 5 μL of test compound and positive control working solutions were added to 445 μL of microsomes incubation mixture at 0.56 mg/mL and 50 μL of regenerating system.
As it relates to the automated incubation procedure for microsomes incubation, the following procedure was followed: • 1. 150 μL of quenching solution (ACN containing an appropriate Internal Standard, i.e. Rolipram and Diclofenac for positive and negative ion mode, respectively) was manually dispensed or dispensed by using the Hamilton system in each well of 96 deep well 1 mL plates. • 2. 800-1000 μL-aliquots of NADPH regenerating system were pre-warmed at 37° C. for 5 minutes. • 3. 5 μL of 50 μM test items and control were added to 445 μL of the 0.56 mg/mL microsomes solution, and the incubation mixture was pre-warmed in a 96 deep well 2 mL plate (incubation plate) at 37° C. for 5 minutes. • 4. […] Metabolic stability was calculated from the ratio of peak area of the remaining test or control item with internal standard versus time. • 9. […] The integrated peak areas of the test and control items at the selected time points were divided by the respective peak areas of the IS, and the percent of parent remaining was calculated by normalizing the peak area ratio of parent to IS at 0 min. Observed rate constant (kobs) for parent degradation was calculated by determining the slope of the line of the graph of the natural log of percentage parent remaining versus time of incubation. […]
A general note: Microsomes from liver hold many membrane-bound enzymes, among them those of drug oxidation.

The nature of data set [2]: Plasma protein binding by equilibrium dialysis, human plasma. It is filed as in vitro ADME. The conditions noted are these: pH 7.4. The protocol:
Methods and Procedure: This study was performed in agreement with the previously described procedures to assure data integrity and adherence to GLP standards. Plasma protein binding and blood tissue binding of test items (0.5 μM) was determined using biological samples from male Sprague Dawley (SD) rats and humans. […] Dexamethasone was used as a control for lung tissue binding. Various biological samples were spiked with test compounds according to the methods that follow.
Preparation of plasma or blood samples: An appropriate amount of test compound was dissolved in DMSO to yield a 10 mM solution. Further dilutions, to obtain 50 μM working solutions (WS), were then prepared using 50% acetonitrile in Milli-Q water. These 100×WS were used to spike plasma or blood to obtain a final concentration of 0.5 μM. From this initial spiking solution, control samples (n=3), referred to as T=0, were immediately extracted and used to calculate the recovery of the test item.
An equilibrium dialysis method was performed to determine protein binding in the various biological samples described herein. Materials were prepared and methods were in accordance with the following procedures. […]
Dialysis buffer was prepared by dissolving Na2HPO4 8.69 g, KH2PO4 1.90 g, and NaCl 4.11 g in 1 L of MilliQ water, and adjusting the pH to 7.4 with H3PO4. […] In order to control the integrity of the membrane after the dialysis process, the presence of protein was assessed in the buffer compartment. […]
Samples were analyzed in a LC-MS/MS system using an analytical method to monitor the compound to internal standard peak area ratios as representative of the compound concentrations. Alternatively, samples were analyzed by RapidFire.
Protein binding in plasma, blood, brain, and lung tissue samples were determined with the following formula: Afu=Buffer/x, wherein “x” may be plasma, blood, brain, or lung, and “Afu” is the apparent fraction unbound, and the other variables refer to the analyte/internal standard ratio determined in their specific compartment (buffer, plasma, blood, brain homogenate, and lung homogenate); […]

The values that follow come from US12595269B2, “Morpholine-like monoamine releasers” (Solvonis Therapeutics Ireland Holdings Limited, priority 2022, dated 2026).

Take `CNC(C)Cc1ccc2c(c1)OCO2` (stereo not shown) [MDMA, reference compound]: in data set [1], the microsomal CLint at 0.5 µM came out at 30 µL/min/mg. Further, the fraction unbound (as a rule, the share of the substance not bound to proteins or other matrix) at 5 h, 0.5 µM in data set [2] was more than 0.5. As for `Clc1ccc([C@]23CN[C@H](CO2)C3)cc1Cl` (single isomer, unassigned) [516A], the microsomal CLint at 0.5 µM in data set [1] came to 31 µL/min/mg. As to `Clc1ccc([C@@]23CN[C@@H](CO2)C3)cc1Cl` (single isomer, unassigned) [518A], in data set [1], the microsomal CLint at 0.5 µM came out at 40 µL/min/mg. In data set [2], this compound showed a fraction unbound at 5 h, 0.5 µM of 0.0143. Turning to `Clc1ccc(C23CNC(CO2)C3)cc1Cl` (stereo not shown) [522A, 1-(3,4-dichlorophenyl)-2-oxa-5-azabicyclo[2.2.1]heptane], the microsomal CLint at 0.5 µM in data set [1] was 10 µL/min/mg. Also, in data set [2], the fraction unbound at 5 h, 0.5 µM came to 0.021.
